In general, DC50 refers to the concentration at which degradation of the target reaches its halfway point.

For one assay, the target named is T1, IRAK4 (Homo sapiens, UniProt Q9NWZ3).
T1 construct: endogenous in cells; host or cells: OCI-LY10
T1 sequence (Q9NWZ3 1-460): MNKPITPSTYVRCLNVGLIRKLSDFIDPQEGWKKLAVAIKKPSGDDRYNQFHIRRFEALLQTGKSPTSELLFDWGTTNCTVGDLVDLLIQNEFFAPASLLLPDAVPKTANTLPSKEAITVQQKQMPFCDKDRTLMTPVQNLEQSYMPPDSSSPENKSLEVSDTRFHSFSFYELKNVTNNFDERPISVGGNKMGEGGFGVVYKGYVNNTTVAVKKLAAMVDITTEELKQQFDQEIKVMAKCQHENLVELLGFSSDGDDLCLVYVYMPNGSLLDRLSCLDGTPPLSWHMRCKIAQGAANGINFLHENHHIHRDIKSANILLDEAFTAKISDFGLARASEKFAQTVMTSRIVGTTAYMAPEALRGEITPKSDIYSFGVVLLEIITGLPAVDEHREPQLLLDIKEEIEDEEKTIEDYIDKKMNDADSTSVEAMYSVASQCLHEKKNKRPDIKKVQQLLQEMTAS
Put plainly: IRAK4 MSD Degradation in OCI-LY10. In kind it is cell-based. The note with it: OCI-LY10 cells, 4 hrs incubation, read-out: IRAK4 degradation in OCI-LY10 at 4 hrs: DC50. The method, boiled down:
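OCI-LY10 cells treated with 8-dose, 1:3 dilution series (top final 1 to 10 μM) for 4 to 24 h at 37 °C, 5% CO2. Lysate IRAK4 quantified by MSD sandwich immunoassay (mouse 2H9 capture, rabbit Y279 detection, SULFO-TAG anti-rabbit); DC50 from three-parameter logistic fit.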
As to `COc1cc2nn([C@H]3CC[C@H](CN4CC(c5ccc6c(c5)n(C)c(=O)n6C5CCC(=O)NC5=O)C4)CC3)cc2cc1NC(=O)c1cccc(C(F)(F)F)n1` (some centres unmarked) [I-260], the DC50 was less than 50 nM.
As for `Cn1c(=O)n(C2CCC(=O)NC2=O)c2ccc(C3CCN(C[C@H]4CC[C@H](n5cc6cc(NC(=O)c7cccc(C(F)(F)F)n7)c(C(F)F)cc6n5)CC4)CC3)cc21` (some centres unmarked) [I-261], the DC50 is less than 50 nM.
As to `COc1cc2nn([C@H]3CC[C@H](CN4CCC(c5ccc6c(c5)n(C)c(=O)n6C5CCC(=O)NC5=O)CC4)CC3)cc2cc1NC(=O)c1cccc(C(F)(F)F)n1` (some centres unmarked) [I-262], the DC50 is less than 50 nM.
On to `Cn1c(=O)n(C2CCC(=O)NC2=O)c2cccc(C3CCN(C[C@H]4CC[C@H](n5cc6cc(NC(=O)c7cccc(C(F)(F)F)n7)c(C(F)F)cc6n5)CC4)CC3)c21` (some centres unmarked) [I-263], for which the DC50 is less than 50 nM.
The same measure, in the same setting: the figure for `Cn1c(=O)n(C2CCC(=O)NC2=O)c2ccc(C3CN(C[C@H]4CC[C@H](n5cc6cc(NC(=O)c7cccc(C(F)(F)F)n7)c(C(F)F)cc6n5)CC4)C3)cc21` (some centres unmarked) [I-264] is less than 50 nM.
With `Cn1c(=O)n(C2CCC(=O)NC2=O)c2cccc(CCC3CCN(C[C@H]4CC[C@H](n5cc6cc(NC(=O)c7cccc(C(F)(F)F)n7)c(C(C)(C)O)cc6n5)CC4)CC3)c21` (some centres unmarked) [I-265], the DC50 was less than 50 nM.
Same read-out and setting: the figure for `Cn1c(=O)n(C2CCC(=O)NC2=O)c2cccc(CCOC3CCN(C[C@H]4CC[C@H](n5cc6cc(NC(=O)c7cccc(C(F)(F)F)n7)c(C(F)F)cc6n5)CC4)CC3)c21` (some centres unmarked) [I-266] is 50 to 100 nM; for `Cn1c(=O)n(C2CCC(=O)NC2=O)c2cccc(CCOC3CCN(C[C@H]4CC[C@H](n5cc6cc(NC(=O)c7cccc(C(F)(F)F)n7)c(C(C)(C)O)cc6n5)CC4)CC3)c21` (some centres unmarked) [I-267] it is less than 50 nM; for `Cc1cccc(C(=O)Nc2cc3cn([C@H]4CC[C@H](CN5CCC6(CC5)CC(CCc5cccc7c5n(C)c(=O)n7C5CCC(=O)NC5=O)C6)CC4)nc3cc2C(C)(C)O)n1` (some centres unmarked) [I-276] it is less than 50 nM.
Regarding `Cn1c(=O)n(C2CCC(=O)NC2=O)c2cccc(CCC3CC4(CCN(C[C@H]5CC[C@H](n6cc7cc(NC(=O)c8ccccn8)c(C(F)F)cc7n6)CC5)CC4)C3)c21` (some centres unmarked) [I-277], the DC50 is less than 50 nM.
Consider `CN(C[C@H]1CC[C@H](n2cc3cc(NC(=O)c4cccc(C(F)(F)F)n4)c(C(F)F)cc3n2)CC1)C1CCC2(CC1)CC(Cc1cccc3c1n(C)c(=O)n3C1CCC(=O)NC1=O)C2` (some centres unmarked) [I-278], for which the DC50 lay in the range of 50 to 100 nM.
With `CN(C[C@H]1CC[C@H](n2cc3cc(NC(=O)c4cccc(C(F)(F)F)n4)c(C(C)(C)O)cc3n2)CC1)C1CCN(Cc2ccc3c(c2)C(=O)N(C)C3C2CCC(=O)NC2=O)CC1` (some centres unmarked) [I-279], the DC50 was less than 50 nM.
With `COc1cc2nn([C@H]3CC[C@H](CN4C[C@H]5C[C@@H]4CN5c4cccc5c4n(C)c(=O)n5C4CCC(=O)NC4=O)CC3)cc2cc1NC(=O)c1cccc(C(F)(F)F)n1` (some centres unmarked) [I-281], the half-maximal degradation concentration (DC50) is less than 50 nM.
The same measure, in the same setting: then `Cn1c(=O)n(C2CCC(=O)NC2=O)c2cccc(N3C[C@H]4C[C@@H]3CN4C[C@H]3CC[C@H](n4cc5cc(NC(=O)c6cccc(C(F)(F)F)n6)c(C(C)(C)O)cc5n4)CC3)c21` (some centres unmarked) [I-282], with less than 50 nM; and `COc1cc2nn([C@H]3CC[C@H](CN(C)C4CCN(c5cccc6c5n(C)c(=O)n6C5CCC(=O)N(C)C5=O)CC4)CC3)cc2cc1NC(=O)c1cccc(C(F)(F)F)n1` (some centres unmarked) [I-283], with 500 to 1000 nM.
On the same count and under the same terms, the figure for `COc1cc2nn([C@H]3CC[C@H](CN4C[C@H]5CC[C@@H](C4)N5c4cccc5c4n(C)c(=O)n5C4CCC(=O)NC4=O)CC3)cc2cc1NC(=O)c1cccc(C(F)(F)F)n1` (some centres unmarked) [I-284] is 50 to 100 nM; for `Cn1c(=O)n(C2CCC(=O)NC2=O)c2cccc(N3[C@@H]4CC[C@H]3CN(C[C@H]3CC[C@H](n5cc6cc(NC(=O)c7cccc(C(F)(F)F)n7)c(C(C)(C)O)cc6n5)CC3)C4)c21` (some centres unmarked) [I-285] it is 50 to 100 nM.
For the compound `COc1cc2nn([C@H]3CC[C@H](CN4CCC5(CC4)CN(Cc4cccc6c4n(C)c(=O)n6C4CCC(=O)NC4=O)CCO5)CC3)cc2cc1NC(=O)c1cccc(C(F)(F)F)n1` (some centres unmarked) [I-289], the DC50 is 50 to 100 nM.
The same measure, in the same setting: then `COc1cc2nn([C@H]3CC[C@H](C(=O)N(C)C4CCN(Cc5cccc6c5n(C)c(=O)n6C5CCC(=O)NC5=O)CC4)CC3)cc2cc1NC(=O)c1cccc(C(F)(F)F)n1` (some centres unmarked) [I-293], with 50 to 100 nM; and `COc1cc2nn([C@H]3CC[C@H](C(=O)N4CCC(c5cccc6c5n(C)c(=O)n6C5CCC(=O)NC5=O)CC4)CC3)cc2cc1NC(=O)c1cccc(C(F)(F)F)n1` (some centres unmarked) [I-295, N-[2-[4-[4-[1-(2,6-dioxo-3-piperidyl)-3-methyl-2-oxo-benzimidazol-4-yl]piperidine-1-carbonyl]cyclohexyl]-6-methoxy-indazol-5-yl]-6-(trifluoromethyl)pyridine-2-carboxamide], with 50 to 100 nM; and `Cn1c(=O)n(C2CCC(=O)NC2=O)c2cccc(CCC3CC4(CCN(C[C@H]5CC[C@H](n6cc7cc(NC(=O)c8cnn9cccnc89)c(C(F)F)cc7n6)CC5)CC4)C3)c21` (some centres unmarked) [I-299], with less than 50 nM.
The same measure, in the same setting: the figure for `Cn1c(=O)n(C2CCC(=O)NC2=O)c2cccc(CCCC3CCN(C[C@H]4CC[C@H](n5cc6cc(NC(=O)c7cccc(C(F)(F)F)n7)c(C(F)F)cc6n5)CC4)CC3)c21` (some centres unmarked) [I-300] is 50 to 100 nM; for `CN(CCO[C@H]1C[C@H](Cc2cccc3c2n(C)c(=O)n3C2CCC(=O)NC2=O)C1)C[C@H]1CC[C@H](n2cc3cc(NC(=O)c4cccc(C(F)(F)F)n4)c(C(F)F)cc3n2)CC1` (some centres unmarked) [I-309] it is 50 to 100 nM; for `CN(C[C@H]1CC[C@H](n2cc3cc(NC(=O)c4cccc(C(F)(F)F)n4)c(C(C)(C)O)cc3n2)CC1)c1cccc2c1n(C)c(=O)n2C1CCC(=O)NC1=O` (some centres unmarked) [I-310, N-[2-[4-[[[1-(2,6-dioxo-3-piperidyl)-3-methyl-2-oxo-benzimidazol-4-yl]-methyl-amino]methyl]cyclohexyl]-6-(1-hydroxy-1-methyl-ethyl)indazol-5-yl]-6-(trifluoromethyl)pyridine-2-carboxamide] it is 500 to 1000 nM.

Staying with this assay, now noted: OCI-LY10 cells, 24 hrs incubation, read-out: IRAK4 degradation in OCI-LY10 at 24 hrs: DC50.
Take `COc1cc2nn([C@H]3CC[C@H](CN(C)[C@H]4CC[C@H](CNc5cccc6c5C(=O)N(C5CCC(=O)NC5=O)C6=O)CC4)CC3)cc2cc1NC(=O)c1cccc(C)n1` (some centres unmarked) [I-268]: the DC50 was in the range of 50 to 100 nM.
Same read-out and setting: then `COc1cc2nn([C@H]3CC[C@H](CN4CCC5(CC4)CC(CNc4cccc6c4C(=O)N(C4CCC(=O)NC4=O)C6=O)C5)CC3)cc2cc1NC(=O)c1ccccn1` (some centres unmarked) [I-273], with 50 to 100 nM.
Consider `COc1cc2nn([C@H]3CC[C@H](CN4CC5(CC(CNc6cccc7c6C(=O)N(C6CCC(=O)NC6=O)C7=O)C5)C4)CC3)cc2cc1NC(=O)c1cccc(C(F)(F)F)n1` (some centres unmarked) [I-274], for which the DC50 lay in the range of 50 to 100 nM.
The same measure, in the same setting: then `COc1cc2nn([C@H]3CC[C@H](CN4CC5(CC(CCNc6cccc7c6C(=O)N(C6CCC(=O)NC6=O)C7=O)C5)C4)CC3)cc2cc1-n1ccc2ccccc2c1=O` (some centres unmarked) [I-286], with 50 to 100 nM.
The same measure, in the same setting: then `Cn1c2cc(NC(=O)c3cccc(C(F)(F)F)n3)c(C(C)(C)O)cc2nc1[C@H]1CC[C@H](CN2CC3(CC(CCNc4cccc5c4C(=O)N(C4CCC(=O)NC4=O)C5=O)C3)C2)CC1` (some centres unmarked) [I-287], with 50 to 100 nM.
For `CN(CCCO[C@H]1C[C@H](Nc2cccc3c2C(=O)N(C2CCC(=O)NC2=O)C3=O)C1)C[C@H]1CC[C@H](n2cc3cc(NC(=O)c4cccc(S(F)(F)(F)(F)F)n4)c(C(C)(C)O)cc3n2)CC1` (some centres unmarked) [I-290], the DC50 is 50 to 100 nM.
Still for that read-out and setting: the figure for `CC(C)(O)c1cc2nn([C@H]3CC[C@H](CN4CCC5(CC4)CC(Nc4cccc6c4C(=O)N(C4CCC(=O)NC4=O)C6=O)C5)CC3)cc2cc1NC(=O)c1cccc(S(F)(F)(F)(F)F)n1` (some centres unmarked) [I-291] is less than 50 nM; for `COc1cc2nc([C@H]3CC[C@H](CN4CC5(CCC(CNc6cccc7c6C(=O)N(C6CCC(=O)NC6=O)C7=O)CC5)C4)CC3)oc2cc1NC(=O)c1cccc(C(C)(F)F)n1` (some centres unmarked) [I-292] it is 50 to 100 nM.
For `CC(C)(O)COc1cc2nn([C@H]3CC[C@H](CN4CC5(CC(CCNc6cccc7c6C(=O)N(C6CCC(=O)NC6=O)C7=O)C5)C4)CC3)cc2cc1NC(=O)c1cccc(C(C)(F)F)n1` (some centres unmarked) [I-296], the DC50 lay in the range of 50 to 100 nM.
With `O=C1CCC(N2C(=O)c3ccc(NCC4CC5(C4)CN(C[C@H]4CC[C@H](n6cc7cc(NC(=O)c8cccc(S(F)(F)(F)(F)F)n8)c(N8CCCCC8)cc7n6)CC4)C5)cc3C2=O)C(=O)N1` (some centres unmarked) [I-297], the DC50 is 100 to 500 nM.
Same read-out and setting: then `Cc1cccc(C(=O)Nc2cc3cn([C@H]4CC[C@H](CN5CCC(COCCCNc6cccc7c6C(=O)N(C6CCC(=O)NC6=O)C7=O)CC5)CC4)nc3cc2C(C)(C)O)n1` (some centres unmarked) [I-304], with less than 50 nM.
Consider `COc1cc2nn([C@H]3CC[C@H](CN4CCC(O[C@H]5C[C@H](Nc6cccc7c6C(=O)N(C6CCC(=O)NC6=O)C7=O)C5)CC4)CC3)cc2cc1NC(=O)c1cccc(C(C)(C)F)n1` (some centres unmarked) [I-305], for which the DC50 fell in the range of 50 to 100 nM.
Same read-out and setting: the figure for `CN(C[C@H]1CC[C@H](n2cc3cc(NC(=O)c4cccc(C(C)(C)F)n4)c(C(C)(C)O)cc3n2)CC1)[C@H]1CC[C@H](Nc2cccc3c2C(=O)N(C2CCC(=O)NC2=O)C3=O)CC1` (some centres unmarked) [I-306] is less than 50 nM; for `Cc1nc(C(=O)Nc2cc3cn([C@H]4CC[C@H](CN(C)[C@H]5CC[C@H](CNc6cccc7c6C(=O)N(C6CCC(=O)NC6=O)C7=O)CC5)CC4)nc3cc2C(C)(C)O)ccc1F` (some centres unmarked) [I-308] it is 50 to 100 nM.

(Values after patent publication US12545659B2, “IRAK degraders and uses thereof” (Kymera Therapeutics, Inc., priority 2019, dated 2026).)
